Experiment [1] deals with T1, HIV-1 protease (wild type) (Human immunodeficiency virus type 1 group M subtype B, UniProt P04585).
T1 construct: made in house; host or cells: Escherichia coli
The experiment is described as follows: Protease Inhibition Assay (Pepcleave), inhibition of microbial expressed HIV protease. It counts as biochemical. How it is done:
Assay for Inhibition of Microbial Expressed HIV Protease
Inhibition studies of the reaction of the protease (which was expressed in Eschericia coli) with a peptide substrate [Val-Ser-Gln-Asn-(betanaphtyl)Ala-Pro-Ile-Val]. The inhibitor is first preincubated with the HIV-1 protease (wild type) enzyme in assay buffer (50 mM sodium acetate, pH 5.5, 100 mM NaCl, and 0.1% BSA) for 30 minutes at room temperature. Substrate is added to 400 micromolar in a total volume of 80 microliters containing 10 picomolar HIV-1 protease and the reaction is incubated for 1 hour at 30° C. The reaction is quenched with the addition of 120 microliters of 10% phosphoric acid. The product formation is determined after separation of product and substrate on a Zorbax Eclipse XDB-C18 column connected to an Agilent 1100 high performance liquid chromatography system with fluorescence detection (excitation 270 nanometer and emission 330 nanometer). Alternatively, the inhibitor is preincubated with enzyme and substrate as described above, but in a total volume of 20 microliters containing 20 picomolar HIV-1 protease and the reaction is incubated for 1 hour at 30° C. The reaction is quenched with the addition of 30 microliters of 1 micromolar indinavir (indinavir is also used as an internal standard), and the product formation is determined after separation of product and substrate on a Zorbax Eclipse XDB-C18 column connected to an API 4000 mass spectrometer (Applied Biosystems) with multiple reaction monitoring (transitions were 644.5/428.9 and 615.4/422.2 (M1/M3) for product and indinavir respectively). The extent of inhibition of the reaction is determined from the peak area of the products. HPLC of the products, independently synthesized, provided quantitation standards and confirmation of the product composition.
Protease Inhibition Assay (“Pepcleave”) data were collected based on the wild-type HIV-1 protease enzyme. The assay monitors the cleavage of a 8-mer peptide (VSQN[β-Nal]PIV) where the tyrosine at P1 position is replaced by β-Naphthyl-alanine. Upon cleavage of the peptide by HIV-1 protease, the product is separated from substrate by HPLC column and detected at Ex.=270 nm/Em=330 nm.

Experiment [2] deals with human immunodeficiency virus type 1. In words: Acute Infection Assay (Spread). It counts as cell-based, HIV-1. The settings on record: Human immunodeficiency virus 1; 10% FBS; mean of at least two independent experiments; read-out: Spread IC95. The source says: Acute Infection Assay (“Spread”) data were generated in 10% FBS, and according to the methods disclosed by J. P. Vacca et al, “L-735,524: An orally bioavailable human immunodeficiency virus type 1 protease inhibitor,” Proc. Nati. Acad. Sci. USA, Vol. 91, pp. 4096-4100 (April 1994).

Setting [3] is: wild-type HIV-1 protease, mean of at least two independent experiments, read-out: Pepcleave Enzyme inhibition IC50.

These results are taken from US9187415B2, “Sulfonamides as HIV protease inhibitors” (Merck Canada Inc., priority 2010, dated 2015).

Where two headings read alike, the source gives them in different places.

For `COC(=O)N[C@H](C(=O)Nc1cccnc1CC[C@@H](CO)N(Cc1cncnc1C)S(=O)(=O)c1ccc2ncsc2c1)C(c1ccccc1)c1ccccc1` [Example 19, N-[2[(3S)-3-{(1,3-benzothiazol-6-ylsulfonyl)[(4-methylpyrimidin-5-yl)methyl]amino)-4-hydroxybutyl]pyridin-3-yl]-Nα-(methoxycarbonyl)-β-phenyl-L-phenylalaninamide], the IC50 in experiment [1] (setting [3]) stood at 4.2 nM. Further, in experiment [2], the IC95 stood at 0.766 µM.
Consider `COC(=O)N[C@H](C(=O)Nc1ccccc1CC[C@@H](CO)N(Cc1cncnc1C)S(=O)(=O)c1ccc(N)cc1)C(c1ccccc1)c1ccccc1` [Example 5, N-{2-[(3S)-3-{[(4-aminophenyl)sulfonyl][(4-methylpyrimidin-5-yl)methyl]amino}-4-hydroxybutyl]phenyl}-Nα-(methoxycarbonyl)-β-phenyl-L-phenylalaninamide], for which, in experiment [1], inhibition was half-maximal at 0.7 nM (IC50). Moreover, the IC95 in experiment [2] is 1.19 µM.
`COC(=O)N[C@H](C(=O)Nc1ccccc1[S+]([O-])C[C@@H](CO)N(CCC(C)C)S(=O)(=O)c1ccc(N)cc1)C(c1ccccc1)c1ccccc1` (stereo partly drawn) [Example 30, N-(2-{[(2R)-2-{[(4-aminophenyl)sulfonyl](3-methylbutyl)amino}-3-hydroxypropyl]sulfinyl}phenyl)-Nα-(methoxycarbonyl)-β-phenyl-L-phenyl alaninamide]: in experiment [1] (setting [3]), the IC50 amounted to 2.1 nM. For the same compound, in experiment [2], the IC95 stood at 1.78 µM.
For `COC(=O)N[C@H](C(=O)Nc1ccccc1SC[C@@H](CO)N(CCC(C)C)S(=O)(=O)c1ccc(N)cc1)C(c1ccccc1)c1ccccc1` [Example 28, N-(2-{[(2R)-2-{[(4-aminophenyl)sulfonyl](3-methylbutyl)amino}-3-hydroxypropyl]sulfanyl}phenyl)-Nα-(methoxycarbonyl)-β-phenyl-L-phenylalaninamide], the 50% inhibitory concentration (IC50) in experiment [1] (setting [3]) turned out to be 0.1 nM. The IC95 in experiment [2] amounted to 0.194 µM.
Regarding `COC(=O)N[C@H](C(=O)Nc1cnccc1SC[C@@H](CO)N(Cc1cn(C)nc1C)S(=O)(=O)c1ccc2ncsc2c1)C(c1ccccc1)c1ccccc1` [Example 26, N-(4-{[(2R)-2-{(1,3-benzothiazol-6-ylsulfonyl)[(1,3-dimethyl-1H-pyrazol-4-yl)methyl]amino)-3-hydroxypropyl)sulfanyl}pyridin-3-yl)-Nα-(methoxycarbonyl)-β-phenyl-L-phenylalaninamide], in experiment [1] (setting [3]), the concentration for half-maximal inhibition (IC50) stood at 0.4 nM. For the same compound, in experiment [2], the concentration for an effect of 95% (IC95) amounted to 1.26 µM.
Take `COC(=O)N[C@@H](Cc1ccccc1Cl)C(=O)Nc1ccccc1CC[C@@H](CO)N(CCC(C)C)S(=O)(=O)c1ccc(N)cc1` [Example 14, N-{2-[(3S)-3-{[(4-aminophenyl)sulfonyl](3-rnethylbutyl)amino}-4-hydroxybutyl]phenyl}-2-chloro-Nα-(methoxycarbonyl)-L-phenylalaninamide]: the IC50 in experiment [1] (setting [3]) is 1.2 nM. Further, the IC95 in experiment [2] amounted to 1.18 µM.
Turning to `COC(=O)N[C@H](C(=O)Nc1cc(F)ccc1CC[C@@H](CO)N(CC1CC(F)(F)C1)S(=O)(=O)c1ccc2ncsc2c1)C(c1ccccc1)c1ccccc1` [Example 13, N-{2-[(3S)-3-{(1,3-benzothiazol-6-ylsulfonyl)[(3,3-difluorocyclobutyl)methyl]amino}-4-hydroxybutyl]-5-fluorophenyl}-Nα-(methoxycarbonyl)-β-phenyl-L-phenylalaninamide], in experiment [1] (setting [3]), the half-maximal inhibitory concentration (IC50) was 1.9 nM. Also, in experiment [2], the IC95 was found to be 1.18 µM.
The matching figures for `COC(=O)N[C@H](C(=O)Nc1ccccc1S(=O)(=O)C[C@@H](CO)N(CCC(C)C)S(=O)(=O)c1ccc(N)cc1)C(c1ccccc1)c1ccccc1` [Example 29, N-(2-{[(2R)-2-{[(4-aminophenyl)sulfonyl)(3-methylbutyl)amino}-3-hydroxypropyl]sulfonyl}phenyl)-Nα-(methoxycarbonyl)-β-phenyl-L-phenyl alaninamide]: 2.9 nM and 1.25 µM.
The matching figures for `COC(=O)N[C@H](C(=O)Nc1ccccc1CC[C@@H](CO)N(CCC(C)C)S(=O)(=O)c1ccc(N)cc1)C(c1ccccc1)c1ccccc1` [Example 1, N-{2-[(3S)-3-{[(4-aminophenyl)sulfonyl](3-methylbutyl)amino}-4-hydroxybutyl]phenyl}-Nα-(methoxycarbonyl)-β-phenyl-L-phenylalaninamide]: 0.02 nM and 0.074 µM.
